This note sets out measurements from patent US20090023721A1, “Novel Substituted Tetracyclic Tetrahydrofuran, Pyrrolidine and Tetrahydrothiophene Derivatives and Their Use as a Medicament” (priority 2005, published 2009).

Where two headings read alike, the source gives them in different places. Where only a bound is given, the exact number is not on record here.

The target of assay [1] is T1, human cloned 5-HT2A receptor, expressed in L929 cells (Homo sapiens, UniProt P28223).
T1 construct: expressed in transfected cells; host or cells: L929 cells
T1 sequence (P28223 whole entry): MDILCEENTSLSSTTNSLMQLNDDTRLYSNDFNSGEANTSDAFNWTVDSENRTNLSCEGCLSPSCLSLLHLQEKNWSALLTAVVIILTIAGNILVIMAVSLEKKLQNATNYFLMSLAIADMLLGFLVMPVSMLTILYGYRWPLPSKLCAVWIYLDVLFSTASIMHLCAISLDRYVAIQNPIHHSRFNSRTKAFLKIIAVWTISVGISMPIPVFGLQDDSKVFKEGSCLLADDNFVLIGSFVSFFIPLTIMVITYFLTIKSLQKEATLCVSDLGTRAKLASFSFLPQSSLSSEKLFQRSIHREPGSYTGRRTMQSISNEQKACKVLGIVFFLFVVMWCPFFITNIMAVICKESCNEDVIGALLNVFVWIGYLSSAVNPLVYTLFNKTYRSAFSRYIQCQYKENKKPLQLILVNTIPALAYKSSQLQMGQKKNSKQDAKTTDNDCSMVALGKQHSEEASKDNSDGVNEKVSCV
Put plainly: In vitro radioligand binding affinity for 5-HT2A receptor ([125I]R91150). The protocol: The interaction of the compounds of Formula (I) with 5-HT2A and 5-HT2C receptors was assessed in in vitro radioligand binding experiments. In general, a low concentration of a radioligand with a high binding affinity for the receptor is incubated with a sample of a tissue preparation enriched in a particular receptor (1 to 5 mg tissue) in a buffered medium (0.2 to 5 ml). During the incubation, the radioligands bind to the receptor. When equilibrium of binding is reached, the receptor bound radioactivity is separated from the non-bound radioactivity, and the receptor bound activity is counted. The interaction of the test compounds with the receptors is assessed in competition binding experiments. Various concentrations of the test compound are added to the incubation mixture containing the tissue preparation and the radioligand. Binding of the radioligand will be inhibited by the test compound in proportion to its binding affinity and its concentration. The affinities of the compounds for the 5-HT2 receptors were measured by means of radioligand binding studies conducted with: (a) human cloned 5-HT2A receptor, expressed in L929 cells using [^125I]R91150 as radioligand and (b) human cloned 5-HT2C receptor, expressed in CHO cells using [^3H]mesulergine as radioligand.

Assay [2] addresses T2, human cloned 5-HT2C receptor, expressed in CHO cells (Homo sapiens, UniProt P28335).
T2 construct: expressed in transfected cells; host or cells: CHO cells
T2 sequence (P28335 33-458): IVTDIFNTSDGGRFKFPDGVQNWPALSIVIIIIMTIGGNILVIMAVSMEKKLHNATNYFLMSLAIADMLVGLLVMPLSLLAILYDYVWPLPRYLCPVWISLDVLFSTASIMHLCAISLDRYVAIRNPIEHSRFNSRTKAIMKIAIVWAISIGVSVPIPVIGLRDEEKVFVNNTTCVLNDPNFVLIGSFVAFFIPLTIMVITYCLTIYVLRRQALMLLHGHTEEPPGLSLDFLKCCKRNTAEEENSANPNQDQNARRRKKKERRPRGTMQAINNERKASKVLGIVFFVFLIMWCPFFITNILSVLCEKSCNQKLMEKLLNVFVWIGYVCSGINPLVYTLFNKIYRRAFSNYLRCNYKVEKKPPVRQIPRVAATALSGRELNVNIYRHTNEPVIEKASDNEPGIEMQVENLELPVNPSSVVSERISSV
Put plainly: In vitro radioligand binding affinity for 5-HT2C receptor ([3H]mesulergine). The protocol:
The interaction of the compounds of Formula (I) with 5-HT2A and 5-HT2C receptors was assessed in in vitro radioligand binding experiments. […] During the incubation, the radioligands bind to the receptor. When equilibrium of binding is reached, the receptor bound radioactivity is separated from the non-bound radioactivity, and the receptor bound activity is counted. The interaction of the test compounds with the receptors is assessed in competition binding experiments. Various concentrations of the test compound are added to the incubation mixture containing the tissue preparation and the radioligand. Binding of the radioligand will be inhibited by the test compound in proportion to its binding affinity and its concentration.

Assay [3] deals with T3, human Dopamine D2L receptor (Homo sapiens, UniProt P14416).
T3 construct: expressed in transfected cells; host or cells: CHO cells (frozen membranes)
T3 sequence (P14416 whole entry): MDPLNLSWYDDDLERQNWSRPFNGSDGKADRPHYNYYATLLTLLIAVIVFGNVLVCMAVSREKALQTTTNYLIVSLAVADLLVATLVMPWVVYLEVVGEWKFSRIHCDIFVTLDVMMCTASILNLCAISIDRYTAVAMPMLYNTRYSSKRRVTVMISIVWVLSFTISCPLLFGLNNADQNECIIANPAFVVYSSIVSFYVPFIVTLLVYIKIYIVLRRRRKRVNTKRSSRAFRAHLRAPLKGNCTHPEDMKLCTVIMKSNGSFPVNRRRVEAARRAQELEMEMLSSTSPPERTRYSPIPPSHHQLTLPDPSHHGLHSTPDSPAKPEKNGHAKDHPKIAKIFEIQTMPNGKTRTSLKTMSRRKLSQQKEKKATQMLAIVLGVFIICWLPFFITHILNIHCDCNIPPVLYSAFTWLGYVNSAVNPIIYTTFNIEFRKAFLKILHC
Put plainly: In vitro binding affinity for human D2L receptor ([3H]Spiperone). The protocol: Frozen membranes of human Dopamine D2L receptor-transfected CHO cells were thawed, briefly homogenised using an Ultra-Turrax T25 homogeniser and diluted in Tris-HCl assay buffer containing NaCl, CaCl2, MgCl2, KCl (50, 120, 2, 1, and 5 mM respectively, adjusted to pH 7.7 with HCl) to an appropriate protein concentration optimised for specific and non-specific binding. Radioligand [^3H]Spiperone (NEN, specific activity ˜70 Ci/mmol) was diluted in assay buffer at a concentration of 2 nmol/L. Prepared radioligand (50 μl), along with 50 μl of either the 10% DMSO control, Butaclamol (10-6 mol/l final concentration), or compound of interest, was then incubated (30 min, 37° C.) with 400 μl of the prepared membrane solution. Membrane-bound activity was filtered through a Packard Filtermate harvester onto GF/B Unifilterplates and washed with ice-cold Tris-HCl buffer (50 mM; pH 7.7; 6×0.5 ml). Filters were allowed to dry before adding scintillation fluid and counting in a Topcount scintillation counter. Percentage specific bound and competition binding curves were calculated using S-Plus software (Insightful).

Assay [4] has as its target T4, NET (Rattus norvegicus, UniProt Q9WTR4).
T4 construct: Cortex from rat brain was collected and homogenised; from tissue; host or cells: rat brain cortex membranes
Nature of the assay: In vitro determination of NET reuptake inhibition ([3H]Nixosetine binding, rat brain cortex membranes). The protocol: Cortex from rat brain was collected and homogenised using an Ultra-Turrax T25 and a Dual homogeniser in ice-cold homogenising buffer containing Tris, NaCl and KCl (50 mM, 120 mM and 5 mM, respectively, pH 7.4) prior to dilution to an appropriate protein concentration optimised for specific and non-specific binding. […] Membrane-bound activity was detected by filtration through a Packard Filtermate harvester onto GF/B Unifilterplates, washed with ice-cold Tris-HCl buffer, containing NaCl and KCl (50 mM, 120 mM and 4 mM; pH 7.4; 6×0.5 ml). Filters were allowed to dry for 24 h before adding scintillation fluid. Scintillation fluid was allowed to saturate filters for 24 h before counting in a Topcount scintillation counter. Percentage specific bound and competition binding curves were calculated using S-Plus software (Insightful).

The mark [5] stands for this setting: human cloned 5-HT2A receptor in L929 cells, [125I]R91150, read-out: h-5HT2A (converted).
The mark [6] stands for this setting: human cloned 5-HT2C receptor in CHO cells, [3H]mesulergine, read-out: h-5HT2C (converted).
Setting [7] is: human D2L receptor-transfected CHO cell membranes, [3H]Spiperone, read-out: h-D2L (converted).

T4 sequence (Q9WTR4 1-597): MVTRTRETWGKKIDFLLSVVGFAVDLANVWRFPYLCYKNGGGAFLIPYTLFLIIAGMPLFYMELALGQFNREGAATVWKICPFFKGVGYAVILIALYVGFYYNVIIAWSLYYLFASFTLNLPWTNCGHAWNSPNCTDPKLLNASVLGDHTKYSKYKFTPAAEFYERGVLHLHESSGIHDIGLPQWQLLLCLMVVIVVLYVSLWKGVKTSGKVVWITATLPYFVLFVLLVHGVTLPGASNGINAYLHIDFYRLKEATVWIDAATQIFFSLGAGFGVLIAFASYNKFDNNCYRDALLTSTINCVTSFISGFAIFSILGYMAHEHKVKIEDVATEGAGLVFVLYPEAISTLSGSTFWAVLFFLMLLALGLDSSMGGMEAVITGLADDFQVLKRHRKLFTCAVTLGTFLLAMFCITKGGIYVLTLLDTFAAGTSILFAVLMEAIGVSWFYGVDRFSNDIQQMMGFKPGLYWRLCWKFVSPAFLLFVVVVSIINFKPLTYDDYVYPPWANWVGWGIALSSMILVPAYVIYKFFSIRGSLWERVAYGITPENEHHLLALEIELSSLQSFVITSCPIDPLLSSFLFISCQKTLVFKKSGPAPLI

As to `CN(C)C[C@@H]1C[C@@H]2c3ccccc3Cc3ccc(F)cc3[C@H]2[S@@+]1[O-]` [compound 26, [(2S,3aR,12bS)-11-fluoro-1-oxido-3,3a,8,12b-tetrahydro-2H-dibenzo[3,4:6,7]-cyclohepta[1,2-b]thien-2-yl]-N,N-dimethylmethanamine], the IC50 in assay [1] (setting [5]), in assay [2] (setting [6]), in assay [3] (setting [7]) and in assay [4] was over 10000 nM each time.
As to `CN1CCN2[C@H](C[C@@H]3c4ccccc4Cc4ccc(F)cc4[C@H]32)C1` [14a, (5aS,14bR,15a,R)-7-fluoro-2-methyl-1,3,4,5a,10,14b,15,1 5a-octahydro-2H-dibenzo-[3′,4′:6′,7′]cyclohepta[1′,2′:4,5]pyrrolo[1,2-a]pyrazine], the IC50 in assay [1] was 1.26 nM; in assay [2] it was 0.891 nM; in assay [3] it was 1.55 nM. The “NET Reuptake Inhibition” value in assay [4] is on record as 5.50.
As for `CN(C)C[C@H]1C[C@@H]2c3ccccc3Oc3ccc(F)cc3[C@H]2N1` [compound 17, [(2R,3aR,12bS)-11-fluoro-2,3,3a,12b-tetrahydro-lH-dibenzo[2,3 :6,7]oxepino[4,5-b]pyrrol-2-yl]-N,N-dimethylmethanamine], the IC50 was 575 nM in assay [1] (setting [5]), 501 nM in assay [2] (setting [6]), 2340 nM in assay [3] (setting [7]) and 7.41 nM in assay [4].
Turning to `O=C1CNC[C@H]2C[C@@H]3c4ccccc4Cc4ccc(F)cc4[C@H]3N12` [compound 12, (5aS,14bR,15aR)-7-fluoro-1,2,3,5a,10,14b,15,15a-octahydro-4H-dibenzo[3′,4′:6′,7′]-cyclohepta[1′,2′:4,5]pyrrolo[1,2-a]pyrazin-4-one], the IC50 in assay [2] is 58.9 nM; in assay [3] (setting [7]), 832 nM; in assay [4], 3470 nM.
In the case of `CSC1=NC[C@H]2C[C@@H]3c4ccccc4Cc4ccc(F)cc4[C@H]3N12` [compound 9, (4aS,13bR,14aR)-6-fluoro-3-(methylsulfanyl)-1,4a,9,13b,14,14a-hexahydrodibenzo-[3′,4′:6′,7′]cyclohepta[1′,2′:4,5]pyrrolo[1,2-c]imidazole], the IC50 in assay [1] (setting [5]) is over 1000 nM; in assay [2] (setting [6]), over 1000 nM; in assay [3] (setting [7]) it was over 1000 nM; in assay [4], 3980 nM.
With `Fc1ccc2c(c1)[C@@H]1[C@H](C[C@H]3CNC(=S)N31)c1ccccc1C2` [compound 3, (4aS,13bR,14aS)-6-fluoro-1,4a,9,13b,14,14a-hexahydrodibenzo-[3′,4′:6′,7′]cyclohepta-[1′,2′:4,5]pyrrolo[1,2-c]imidazole-3(2H)-thione], the IC50 was over 1000 nM in assay [1] (setting [5]), 240 nM in assay [2] (setting [6]) and over 1000 nM in assay [3] (setting [7]). Further, the “NET Reuptake Inhibition” value in assay [4] was found to be 5.24.
As for `CN1C[C@@H]2C[C@@H]3c4ccccc4Cc4ccc(F)cc4[C@H]3N2C1` [compound 1, (4aS,13bR,14aS)-6-fluoro-2-methyl-1,2,3,4a,9,13b,14,14a-octahydrodibenzo-[3′,4′:6′,7′]cyclohepta[1′,2′:4,5]pyrrolo[1,2-c]imidazole], the IC50 is 115 nM in assay [1] (setting [5]), 151 nM in assay [2] (setting [6]), 2240 nM in assay [3] (setting [7]) and 115 nM in assay [4].
For the compound `CNC[C@H]1C[C@@H]2c3ccccc3Cc3ccc(F)cc3[C@H]2N1C=O` [compound 38, (2R,3aR,12bS)-11-fluoro-2-[(methylamino)methyll]-3,3a,8,12b-tetrahydrodibenzo-[3,4:6,7]cyclohepta[1,2-b]pyrrole-1 (2H)-carbaldehyde], the IC50 is 631 nM in assay [1] (setting [5]), 186 nM in assay [2] (setting [6]), 7080 nM in assay [3] (setting [7]) and 490 nM in assay [4].
For `CNC[C@H]1CC[C@@H]2c3ccccc3Cc3ccc(F)cc3[C@H]2O1` [compound 46, [(2R,4aR,13bS)-12-fluoro-2,3,4,4a,9,13b-hexahydrodibenzo[3,4:6,7]cyclohepta-[1,2-b]pyran-2-yl]-N-methylmethanamine] the same measures were 13.8 nM, 5.89 nM, 6310 nM and 398 nM.
Consider `CN1C[C@H]2C[C@@H]3c4ccccc4Cc4ccc(F)cc4[C@H]3N2C1=O` [compound 7], for which the IC50 in assay [1] (setting [5]) is over 1000 nM; in assay [2] (setting [6]), over 1000 nM; in assay [3] (setting [7]), over 1000 nM; in assay [4], 891 nM.
With `CN(C)C[C@H]1C[C@@H]2c3ccccc3Cc3ccc(F)cc3[C@H]2N1C` [compound 5, [(2R,3aR,12bS)-11-fluoro-1-methyl-1,2,3,3a,8,12b-hexahydrodibenzo[3,4:6,7]cyclohepta[1,2-b]pyrrol-2-yl]-N,N-dimethylmethanamine], the values for the IC50 in assay [1] (setting [5]), in assay [2] (setting [6]) and in assay [3] (setting [7]) were 27.5 nM, 5.37 nM and 132 nM, respectively.
As to `CN(CCO)C[C@H]1C[C@@H]2c3ccccc3Cc3ccc(F)cc3[C@H]2N1` [43b, 2-[{[(2R,3aR,12bS)-11-fluoro-1,2,3,3a,8,12b-exahydrodibenzo[3,4:6,7]cyclohepta[1,2-b]pyrrol-2-yl]methyl}(methyl)amino]-ethanol], the h-5HT2A in assay [1] (human cloned 5-HT2A receptor in L929 cells, [125I]R91150) stood at 7.17. Further, the h-5HT2C in assay [2] (human cloned 5-HT2C receptor in CHO cells, [3H]mesulergine) was determined as 7.05. Also, in assay [3] (human D2L receptor-transfected CHO cell membranes, [3H]Spiperone), the h-D2L worked out at 6.36.
Consider `OC1CCN(C[C@H]2C[C@@H]3c4ccccc4Oc4ccc(F)cc4[C@H]3N2)C1` (stereo partly drawn) [compound 20, 1-{[(2R,3aR,12bS)-11-fluoro-2,3,3a,12b-tetrahydro-1H-dibenzo[2,3:6,7]oxepino[4,5-b]pyrrol-2-yl]methyl}-3-pyrrolidinol], for which the IC50 in assay [2] (setting [6]) was 110 nM; in assay [3] (setting [7]), 355 nM; in assay [4] it was 417 nM.
`OCCN1CCN(C[C@H]2C[C@@H]3c4ccccc4Oc4ccc(F)cc4[C@H]3N2)CC1` [compound 19, 2-(4-{[(2R,3aR,12bS)-11-fluoro-2,3,3a,12b-tetrahydro-1H-dibenzo[2,3 :6,7]oxepino-[4,5-b]pyrrol-2-yl]methyl}-1-piperazinyl)ethanol]: the values for the IC50 in assay [2] (setting [6]), in assay [3] (setting [7]) and in assay [4] were 4270 nM, 112 nM and over 10000 nM, respectively.
For `COC(=O)N1[C@@H](CN(C)C)CC[C@@H]2c3ccccc3Cc3ccc(F)cc3[C@H]21` [compound 45, Methyl (2R,4aR,13bS)-2-[(dimethylamino)methyl]-12-fluoro-2,3,4,4a,9,13b-hexahydro-1H-dibenzo[3,4:6,7]cyclohepta[1,2-b]pyridine-1-carboxylate] the same measures were 2240 nM, over 10000 nM and 794 nM.
